The values below come from PubChem BioAssay AID328 (DTP/NCI, 2004).

“And” between values parts separate entries of the source, which are not always exact repeats. Equal values may be shown once. Inconclusive results and toxic doses are left out.

This assay concerns BDF1 mice, P388 leukemia ip, median survival T/C. Briefly: NCI In Vivo Anticancer Drug Screen. Data for tumor model P388 Leukemia (intraperitoneal) in B6D2F1 (BDF1) mice. To be noted: endpoint: median survival time, higher = longer survival. In a few lines:
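Survival ratio, drug arm over vehicle arm, in mice with a transplanted tumour.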

The mark [1] stands for this setting: dose: 100.0 mg/kg/injection, schedule: Q04DX003 (ip), vehicle: saline with Tween-80.
[2] abbreviates: dose: 200.0 mg/kg/injection, schedule: Q01DX009 (ip), vehicle: saline with Tween-80.
The mark [3] stands for this setting: dose: 200.0 mg/kg/injection, schedule: Q04DX003 (ip), vehicle: saline with Tween-80.
[4] abbreviates: dose: 400.0 mg/kg/injection, schedule: Q04DX003 (ip), vehicle: saline with Tween-80.
Where [5] appears, read: dose: 100.0 mg/kg/injection, schedule: Q01DX009 (ip), vehicle: saline with Tween-80.
Setting [6] is: dose: 50.0 mg/kg/injection, schedule: Q01DX001 (ip), vehicle: saline with Tween-80.
The mark [7] stands for this setting: dose: 100.0 mg/kg/injection, schedule: Q01DX001 (ip), vehicle: saline with Tween-80.
The mark [8] stands for this setting: dose: 100.0 mg/kg/injection, schedule: Q04DX003 (ip), vehicle: Klucel (hydroxypropylcellulose) (HPC).
[9] abbreviates: dose: 200.0 mg/kg/injection, schedule: Q04DX003 (ip), vehicle: Klucel (hydroxypropylcellulose) (HPC).
[10] abbreviates: dose: 400.0 mg/kg/injection, schedule: Q04DX003 (ip), vehicle: Klucel (hydroxypropylcellulose) (HPC).
[11] abbreviates: dose: 50.0 mg/kg/injection, schedule: Q01DX009 (ip), vehicle: saline with Tween-80.
The mark [12] stands for this setting: dose: 25.0 mg/kg/injection, schedule: Q01DX009 (ip), vehicle: saline with Tween-80.

For `O=[N+]([O-])c1ccccc1CSc1ncnc2nc[nH]c12`, the T/C by setting is: under setting [1], 100 % of control; (dose: 132.0 mg/kg/injection, schedule: Q01DX009 (ip), vehicle: saline with Tween-80) 104 % of control; under setting [2], 100 % of control; under setting [3], 108 % of control; (dose: 300.0 mg/kg/injection, schedule: Q01DX009 (ip), vehicle: saline with Tween-80) 86 % of control; under setting [4], 116 % of control.
Take `Nc1nc(-c2ccccc2)cc2ccccc12`: the T/C (dose: 12.5 mg/kg/injection, schedule: Q04DX003 (ip), vehicle: saline with Tween-80) was 100 % of control and the T/C (dose: 25.0 mg/kg/injection, schedule: Q04DX003 (ip), vehicle: saline with Tween-80) was 97 % of control.
In the case of `CC(=O)C1CC2c3ccccc3C1c1ccccc12` (stereo unspecified), the T/C by setting is: under setting [5], 95 % of control; under setting [2], 87 % of control.
On to `CCC(C)Sc1nc(N)nc2c1ncn2C1OC(CO)C(O)C1O` (stereo unspecified), for which the T/C under setting [1] is 91 % of control and 109 % of control; the T/C under setting [3] is 108 % of control and 118 % of control.
Take `O=C(O)c1ccccc1C(=O)O` (tested in a mixture with another compound): the T/C is, setting by setting: (dose: 50.0 mg/kg/injection, schedule: Q01DX009 (ip), vehicle: Klucel (hydroxypropylcellulose) (HPC)) 89 % of control; (dose: 100.0 mg/kg/injection, schedule: Q01DX009 (ip), vehicle: Klucel (hydroxypropylcellulose) (HPC)) 91 % of control; (dose: 200.0 mg/kg/injection, schedule: Q01DX009 (ip), vehicle: Klucel (hydroxypropylcellulose) (HPC)) 96 % of control.
As for `CCCCCCCCCCCCCCCCOc1ccc(CC)cc1`, the T/C is 95 % of control under setting [6]; 90 % of control under setting [7]; 100 % of control (dose: 200.0 mg/kg/injection, schedule: Q01DX001 (ip), vehicle: saline with Tween-80).
Take `CCOC(=O)c1ccc(=O)n(C(C)C)c1`: the T/C is, setting by setting: under setting [8], 90 % of control; under setting [9], 90 % of control; under setting [10], 100 % of control.
In the case of `Cc1ccc2oc(=O)c(C3=CC(=O)C(SC(=N)N)C=C3O)c(O)c2c1` (stereo unspecified), the T/C was 95 % of control (dose: 50.0 mg/kg/injection, schedule: Q01DX005 (ip), vehicle: Klucel (hydroxypropylcellulose) (HPC)); 97 % of control (dose: 100.0 mg/kg/injection, schedule: Q01DX005 (ip), vehicle: Klucel (hydroxypropylcellulose) (HPC)); 91 % of control (dose: 200.0 mg/kg/injection, schedule: Q01DX005 (ip), vehicle: Klucel (hydroxypropylcellulose) (HPC)).
For `COc1ccc(/C=N/Nc2nc3ccc4ccccc4c3s2)cc1`, the T/C was 90 % of control under setting [11], 101 % of control under setting [5] and 115 % of control under setting [2].
In the case of `Clc1ccc(CNc2ncnc3[nH]ncc23)c(Cl)c1`, the T/C runs as follows: under setting [11], 104 % of control; under setting [5], 100 % of control; under setting [2], 90 % of control.
For the molecule `CCOC(=O)C(C(C)=O)C(C)C` (stereo unspecified), the T/C (dose: 100.0 mg/kg/injection, schedule: Q01DX005 (ip), vehicle: other) is 112 % of control; the T/C (dose: 200.0 mg/kg/injection, schedule: Q01DX005 (ip), vehicle: other) was 117 % of control; the T/C (dose: 400.0 mg/kg/injection, schedule: Q01DX005 (ip), vehicle: other) is 109 % of control.
For `COc1cccc(CNc2cccc(Cl)c2Cl)c1OC`, the T/C is 100 % of control under setting [1], 104 % of control under setting [3] and 100 % of control under setting [4].
On to `O=[N+]([O-])c1ccc(SCc2ccccc2)c2nonc12`, for which the T/C runs as follows: under setting [11], 150 % of control; under setting [5], 153 % of control.
With `COc1ccc(-c2csc(-c3ccccc3)n2)cc1N=Cc1ccc(N(CCCl)CCCl)c(OC)c1`, the T/C (dose: 2.6 mg/kg/injection, schedule: Q04DX003 (ip), vehicle: saline with Tween-80) is 118 % of control; the T/C (dose: 4.0 mg/kg/injection, schedule: Q04DX003 (ip), vehicle: saline with Tween-80) is 122 % of control; the T/C (dose: 6.0 mg/kg/injection, schedule: Q04DX003 (ip), vehicle: saline with Tween-80) is 90 % of control; the T/C (dose: 13.0 mg/kg/injection, schedule: Q04DX003 (ip), vehicle: saline with Tween-80) was 190 % of control; the T/C (dose: 17.0 mg/kg/injection, schedule: Q01DX009 (ip), vehicle: saline with Tween-80) is 240 % of control; the T/C (dose: 20.0 mg/kg/injection, schedule: Q04DX003 (ip), vehicle: saline with Tween-80) is 204 % of control. The T/C under setting [12] is 240 % of control; the T/C (dose: 30.0 mg/kg/injection, schedule: Q04DX003 (ip), vehicle: saline with Tween-80) is 271 % of control; the T/C (dose: 37.0 mg/kg/injection, schedule: Q01DX009 (ip), vehicle: saline with Tween-80) is 184 % of control; the T/C (dose: 44.0 mg/kg/injection, schedule: Q04DX003 (ip), vehicle: saline with Tween-80) was 242 % of control and 300 % of control; the T/C (dose: 67.0 mg/kg/injection, schedule: Q04DX003 (ip), vehicle: saline with Tween-80) was 272 % of control and 300 % of control; the T/C under setting [5] is 87 % of control.
Turning to `C=C(C)CNc1ccccc1`, the T/C under setting [12] was 119 % of control; the T/C under setting [11] is 123 % of control; the T/C under setting [5] is 103 % of control and 123 % of control.
On to `CCCCCC(CN(C)C)C(=O)/C=C/c1c(Cl)cccc1Cl` (stereo unspecified), for which the T/C was 104 % of control (dose: 3.12 mg/kg/injection, schedule: Q04DX003 (ip), vehicle: Klucel (hydroxypropylcellulose) (HPC)); 110 % of control (dose: 6.25 mg/kg/injection, schedule: Q01DX009 (ip), vehicle: Klucel (hydroxypropylcellulose) (HPC)); 109 % of control (dose: 6.25 mg/kg/injection, schedule: Q04DX003 (ip), vehicle: Klucel (hydroxypropylcellulose) (HPC)); 104 % of control (dose: 12.5 mg/kg/injection, schedule: Q04DX003 (ip), vehicle: Klucel (hydroxypropylcellulose) (HPC)); 105 % of control (dose: 18.0 mg/kg/injection, schedule: Q04DX003 (ip), vehicle: Klucel (hydroxypropylcellulose) (HPC)); 115 % of control (dose: 28.0 mg/kg/injection, schedule: Q04DX003 (ip), vehicle: Klucel (hydroxypropylcellulose) (HPC)). The T/C (dose: 40.0 mg/kg/injection, schedule: Q01DX001 (ip), vehicle: saline) was 109 % of control; the T/C (dose: 40.0 mg/kg/injection, schedule: Q04DX003 (ip), vehicle: Klucel (hydroxypropylcellulose) (HPC)) is 90 % of control; the T/C (dose: 65.0 mg/kg/injection, schedule: Q01DX001 (ip), vehicle: saline) is 104 % of control.
Consider `CC1CN(Cc2ccccc2)CC(C)N1` (stereo unspecified), for which the T/C was 106 % of control (dose: 50.0 mg/kg/injection, schedule: Q04DX003 (ip), vehicle: water); 104 % of control (dose: 100.0 mg/kg/injection, schedule: Q04DX003 (ip), vehicle: water); 92 % of control (dose: 200.0 mg/kg/injection, schedule: Q04DX003 (ip), vehicle: water).
For the molecule `C/C(=C\n1ccccc1=N)C(=O)c1ccc(F)cc1`, the T/C under setting [8] was 95 % of control, the T/C under setting [9] is 90 % of control and the T/C under setting [10] was 104 % of control.
Consider `O=CC(OC(=O)c1ccccc1)C(OC(=O)c1ccccc1)C(COC(c1ccccc1)(c1ccccc1)c1ccccc1)OC(=O)c1ccccc1` (stereo unspecified), for which the T/C by setting is: under setting [12], 110 % of control; under setting [11], 110 % of control; under setting [5], 120 % of control; under setting [2], 100 % of control and 108 % of control.
Consider `CCCCc1ccc(C#N)nc1`, for which the T/C was 98 % of control under setting [11], 106 % of control under setting [5] and 108 % of control under setting [2].
As for `CN(CCO)C1=C(N2CC2)C(=O)C(N(C)CCO)=C(N2CC2)C1=O`, the T/C (dose: 200.0 micrograms/kg/injection, schedule: Q01DX009 (ip), vehicle: saline) was 116 % of control; the T/C (dose: 400.0 micrograms/kg/injection, schedule: Q01DX009 (ip), vehicle: saline) is 157 % of control; the T/C (dose: 800.0 micrograms/kg/injection, schedule: Q01DX009 (ip), vehicle: saline) is 228 % of control.
Turning to `COCc1ccc([N+](=O)[O-])cc1`, the T/C (dose: 25.0 mg/kg/injection, schedule: Q01DX001 (ip), vehicle: saline with Tween-80) was 101 % of control; the T/C under setting [6] was 95 % of control; the T/C under setting [7] was 96 % of control and 107 % of control.
